Consider twelve molecules from ChEMBL document CHEMBL1131882, “Unsymmetrical cyclic ureas as HIV-1 protease inhibitors: novel biaryl indazoles as P2/P2' substituents” (Bioorg Med Chem Lett, 1999).

Structures are written as SMILES. Bounds are passed on as bounds.

Test [1] addresses Human immunodeficiency virus type 1 protease (Human immunodeficiency virus 1) (UniProt Q72874). Kind of test: Inhibitory activity against HIV -1 Protease in whole cell assay.
In test [2] the target is Human immunodeficiency virus type 1 protease (Human immunodeficiency virus 1, UniProt Q72874). The test can be described thus: Binding affinity for HIV -1 Protease.
Test [3] deals with Human immunodeficiency virus 1. The test can be described thus: Inhibitory activity against Ritonavir resistant virus mutant strain. It counts as functional.

On to `COc1ccc(-c2[nH]nc3ccc(CN4C(=O)N(Cc5cccc(N)c5)[C@H](Cc5ccccc5)[C@H](O)[C@@H](O)[C@H]4Cc4ccccc4)cc23)cc1`, for which the results for the 90% effect concentration (IC90) in test [1] and in test [3] were 14 nM and 4190 nM, respectively. Moreover, in test [2], the affinity corresponds to a Ki of 0.26 nM.

As for `CC(C)c1nc(CN(C)C(=O)N[C@H](C(=O)N[C@@H](Cc2ccccc2)C[C@H](O)[C@H](Cc2ccccc2)NC(=O)OCc2cncs2)C(C)C)cs1` [RITONAVIR], the 90% effect concentration (IC90) in test [3] amounted to 4500 nM.

For the molecule `Nc1cccc(CN2C(=O)N(Cc3ccc4[nH]nc(-c5cccs5)c4c3)[C@H](Cc3ccccc3)[C@H](O)[C@@H](O)[C@H]2Cc2ccccc2)c1`, the results for the IC90 in test [1] and in test [3] were 31 nM and more than 5000 nM, respectively. This molecule also came in with an inhibition constant Ki in test [2] of 0.18 nM.

Consider `Nc1cccc(CN2C(=O)N(Cc3ccc4[nH]nc(-c5cccc(N)c5)c4c3)[C@H](Cc3ccccc3)[C@H](O)[C@@H](O)[C@H]2Cc2ccccc2)c1`, for which the figures for the concentration for an effect of 90% (IC90) in test [1] and in test [3] were 30 nM and 1300 nM, respectively. Moreover, the affinity in test [2] corresponds to a Ki of 0.09 nM.

Turning to `Nc1cccc(CN2C(=O)N(Cc3ccc4[nH]ncc4c3)[C@H](Cc3ccccc3)[C@H](O)[C@@H](O)[C@H]2Cc2ccccc2)c1`, the IC90 in test [1] came to 11 nM; in test [3], 825 nM.

Molecule `COc1cccc(-c2n[nH]c3ccc(CN4C(=O)N(Cc5cccc(N)c5)[C@H](Cc5ccccc5)[C@H](O)[C@@H](O)[C@H]4Cc4ccccc4)cc23)c1` registered a Ki in test [2] of 0.24 nM.

On to `Nc1cccc(CN2C(=O)N(Cc3ccc4[nH]nc(-c5cc[nH]n5)c4c3)[C@H](Cc3ccccc3)[C@H](O)[C@@H](O)[C@H]2Cc2ccccc2)c1`, for which the results for the 90% effect concentration (IC90) in test [1] and in test [3] were 108 nM and 525 nM, respectively. The same molecule displayed an inhibition constant (Ki) in test [2] of 0.058 nM.

In test [1], `Nc1cccc(CN2C(=O)N(Cc3ccc4[nH]nc(-c5cccc(C(F)(F)F)c5)c4c3)[C@H](Cc3ccccc3)[C@H](O)[C@@H](O)[C@H]2Cc2ccccc2)c1` registered an IC90 of 39 nM. Further, the Ki in test [2] was determined as 0.61 nM.

Regarding `Nc1cccc(CN2C(=O)N(Cc3ccc4[nH]nc(-c5ccc(F)cc5)c4c3)[C@H](Cc3ccccc3)[C@H](O)[C@@H](O)[C@H]2Cc2ccccc2)c1`, the concentration for an effect of 90% (IC90) in test [1] was 39 nM; in test [3], more than 5000 nM. This molecule returned an inhibition constant (Ki) in test [2] of 0.3 nM.

For `Nc1cccc(CN2C(=O)N(Cc3ccc4[nH]nc(-c5ccsc5)c4c3)[C@H](Cc3ccccc3)[C@H](O)[C@@H](O)[C@H]2Cc2ccccc2)c1`, the 90% effect concentration (IC90) was 32 nM in test [1] and more than 5000 nM in test [3]. Affinity in test [2] was put at a Ki of 0.13 nM.

On to `Nc1cccc(CN2C(=O)N(Cc3ccc4[nH]nc(-c5ccc(C(F)(F)F)cc5)c4c3)[C@H](Cc3ccccc3)[C@H](O)[C@@H](O)[C@H]2Cc2ccccc2)c1`, for which, in test [1], the 90% effect concentration (IC90) is 255 nM. The molecule further showed an inhibition constant Ki in test [2] of 0.25 nM.

`COc1cccc(-c2[nH]nc3ccc(CN4C(=O)N(Cc5cccc(N)c5)[C@H](Cc5ccccc5)[C@H](O)[C@@H](O)[C@H]4Cc4ccccc4)cc23)c1`: the IC90 in test [1] amounted to 33 nM; in test [3], 3140 nM.

In general, IC90 refers to the point of the concentration-response curve where the effect stands at 90%. High values mean a need for much substance, low ones an effect from little substance. What is called Ki is a dissociation constant, usually derived from enzyme kinetics or from competition with a known ligand. Lower therefore signals tighter binding.
